Reference: paper PMC4454744 (Analytical biochemistry, 2015)
Where two headings read alike, the source gives them in different places.

Experiments:
[1] = system: hepatitis C virus NS3 protease; conditions: jump dilution; cited from earlier work
saFabI = test: Progress curve analysis, saFabI; format: biochemical, Staphylococcus aureus; conditions: for residence time tR: progress curve analysis, saFabI system, 20 °C
[2] = target: T1, R40Q/K41N/S44L saFabI variant (Staphylococcus aureus, UniProt Q6GI75, K41N/R40Q/S44L); test: [32P]-NAD+ direct dissociation method, saFabI; format: binding; conditions: saFabI system
T1 sequence (Q6GI75 1-256 R40Q/K41N/S44L): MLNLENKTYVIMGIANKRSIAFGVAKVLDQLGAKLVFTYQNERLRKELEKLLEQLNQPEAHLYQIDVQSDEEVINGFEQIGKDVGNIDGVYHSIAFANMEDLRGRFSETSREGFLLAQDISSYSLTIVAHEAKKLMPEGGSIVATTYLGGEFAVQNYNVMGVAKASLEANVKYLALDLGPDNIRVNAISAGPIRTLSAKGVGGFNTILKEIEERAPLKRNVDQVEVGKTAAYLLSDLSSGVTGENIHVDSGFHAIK

[3] = target: T2, M. tuberculosis FabI (InhA) (Mycobacterium tuberculosis, UniProt P9WGR1)
[4] = target: T2, M. tuberculosis FabI (InhA); conditions: progress curve analysis; bound to InhA; 20 °C

Compound: CC(C)(C)OC(=O)N[C@H]1CCCCC/C=C\[C@@H]2C[C@@]2(C(=O)NS(=O)(=O)C2CC2)NC(=O)[C@@H]2C[C@@H](OC(=O)N3Cc4cccc(F)c4C3)CN2C1=O [ITMN-191]
- recovery of enzyme activity [1]: partial recovery of enzyme activity

Compound: CCCCCCc1ccc(Oc2ccccc2)c(O)c1 [PT04]
- residence time tR (saFabI): 97 min
- residence time tR [2]: 461.5 min

Compound: CCCCCCc1ccc(Oc2ccccc2Cl)c(O)c1 [PT91]
- residence time tR [3]: 148.4 ± 13.4 min
- residence time tR [4]: 102.1 ± 11.4 min

Compound: CCCCCCc1ccc(Oc2ccccc2C#N)c(O)c1 [PT119]
- difference in koff (saFabI; progress curve analysis vs direct dissociation method, inhibition of saFabI): 8 fold
- residence time tR (saFabI): 120.3 min
- residence time tR [2]: 833.3 min
